# According to patent US9204653B2, “5-fluoro pyrimidine derivatives” (DOW AGROSCIENCES LLC, priority 2008, dated 2015):
# Where two headings read alike, the source gives them in different places.
# Test system: Mycosphaerella graminicola; Anamorph: Septoria tritici; Bayer Code SEPTTR
# Experiment: Leaf blotch of wheat, foliar fungicide treatment, one day protectant (1DP) or three day curative (3DC)
# Format: in vivo, Septoria tritici on wheat plants (variety Yuma)
# Details: Zymoseptoria tritici; for pest or weed control at 50 ppm / pest or weed control at 200 ppm: % disease control rating, one day protectant; for pest or weed control at 25 ppm / pest or weed control at 100 ppm: percent control rating; for pest or weed control at 100 ppm: read-out: SEPTTR 3DC 100 ppm
# [1] = 24 h, one day protectant (1DP), 25 ppm (first 1DP column), read-out: SETTTR 1DP 25 ppm
# [2] = 24 h, one day protectant (1DP), 25 ppm as printed (second 1DP column), read-out: SETTTR 1DP 25 ppm
# [3] = 72 h, three day curative (3DC), 25 ppm, read-out: SEPTTR 3DC 25 ppm
SMILES,pest or weed control at 50 ppm (24 h) [%],pest or weed control at 200 ppm (24 h) [%],pest or weed control at 25 ppm [1] [%],pest or weed control at 25 ppm [2] [%],pest or weed control at 25 ppm [3] [%],"pest or weed control at 100 ppm (72 h, three day curative (3DC)) [%]"
Fc1cnc(OC2CCCCC2)nc1NCc1ccc(Cl)cc1 [Compound 903],0 to 25,76 to 100,,,,
Fc1cnc(OCCc2ccccc2)nc1NCc1ccc2c(c1)OCO2 [Compound 904],0 to 25,26 to 50,,,,
Fc1cnc(OCC(F)(F)F)nc1NCc1ccc(Cl)cc1 [Compound 905],26 to 50,51 to 75,,,,
COc1ccc(COc2ncc(F)c(NCc3cccs3)n2)cc1 [Compound 906],,76 to 100,,,,
Fc1ccccc1CNc1nc(OCc2cc(Cl)cc(Cl)c2)ncc1F [Compound 907],51 to 75,76 to 100,,,,
Fc1cnc(OCc2ccc(Cl)cc2)nc1NCCc1ccccc1 [Compound 908],76 to 100,76 to 100,,,,
Fc1cnc(OCc2ccc(Cl)c(Cl)c2)nc1NC1CC1 [Compound 909],,76 to 100,,,,
Fc1cccc(COc2ncc(F)c(NCc3cccs3)n2)c1 [Compound 910],,76 to 100,,,,
Fc1cnc(OCCc2ccccc2)nc1NCc1ccc(Cl)cc1 [Compound 911],0 to 25,0 to 25,,,,
Fc1cnc(OCc2cccc(Cl)c2)nc1NCc1cccs1 [Compound 912],,76 to 100,,,,
Fc1ccccc1CNc1nc(OCc2ccncc2)ncc1F [Compound 913],76 to 100,76 to 100,,,,
Cc1ccc(CNc2nc(OCc3ccco3)ncc2F)cc1 [Compound 914],0 to 25,76 to 100,,,,
Fc1cnc(OCC(F)(F)F)nc1NCc1ccc(Cl)nc1 [Compound 915],0 to 25,0 to 25,,,,
Cc1ccc(COc2ncc(F)c(NCc3cnc(C)cn3)n2)cc1 [Compound 916],76 to 100,76 to 100,,,,
C=CCOc1ncc(F)c(NCc2ccccc2F)n1 [Compound 917],0 to 25,51 to 75,,,,
Fc1ccccc1CNc1nc(OCc2ccc(Cl)cc2)ncc1F [Compound 918],76 to 100,76 to 100,,,,
Fc1cnc(OCc2ccc3c(c2)OCO3)nc1NC1CC1 [Compound 919],,76 to 100,,,,
Cc1ccc(CNc2nc(OCc3ccc(Cl)cc3)ncc2F)cc1 [Compound 920],76 to 100,76 to 100,,,,
Fc1ccc(COc2ncc(F)c(NCc3ccccc3F)n2)c(F)c1 [Compound 921],76 to 100,76 to 100,,,,
Cc1ccc(CNc2nc(OCc3cccs3)ncc2F)cc1 [Compound 922],51 to 75,26 to 50,,,,

SMILES,pest or weed control at 50 ppm (24 h) [%],pest or weed control at 200 ppm (24 h) [%],pest or weed control at 25 ppm [1] [%],pest or weed control at 25 ppm [2] [%],pest or weed control at 25 ppm [3] [%],"pest or weed control at 100 ppm (72 h, three day curative (3DC)) [%]"
Fc1ccc(COc2ncc(F)c(NCc3cccs3)n2)c(F)c1 [Compound 923],,76 to 100,,,,
Fc1ccccc1CNc1nc(OCc2cccc(Cl)c2)ncc1F [Compound 924],76 to 100,76 to 100,,,,
Fc1cnc(OCc2ccc(Cl)cc2)nc1N1CCOCC1 [Compound 925],0 to 25,0 to 25,,,,
Cc1ccc(COc2ncc(F)c(NCCc3ccccc3)n2)cc1 [Compound 926],76 to 100,76 to 100,,,,
Fc1ccc(COc2ncc(F)c(NC3CC3)n2)cc1 [Compound 927],51 to 75,76 to 100,,,,
Fc1ccccc1CNc1nc(OCc2ccc3c(c2)OCO3)ncc1F [Compound 928],76 to 100,76 to 100,,,,
COc1ccc(COc2ncc(F)c(NCc3ccc(Cl)cc3)n2)cc1 [Compound 929],51 to 75,76 to 100,,,,
Cc1ccc(COc2ncc(F)c(NCc3ccccc3F)n2)cc1 [Compound 930],0 to 25,76 to 100,,,,
COc1cccc(COc2ncc(F)c(NCc3cccs3)n2)c1 [Compound 931],,76 to 100,,,,
C=CCOc1ncc(F)c(N)n1 [Compound 932],76 to 100,76 to 100,,,,
Cc1cnc(CNc2nc(OCCc3ccccc3)ncc2F)cn1 [Compound 934],0 to 25,26 to 50,,,,
Fc1cnc(OCc2ccccn2)nc1NCc1ccc(Cl)cc1 [Compound 935],26 to 50,76 to 100,,,,
Nc1nc(OCCc2ccccc2)ncc1F [Compound 936],76 to 100,76 to 100,,,,
Fc1cnc(OCc2cccs2)nc1NCCc1ccccc1 [Compound 937],76 to 100,76 to 100,,,,
Fc1ccc(COc2ncc(F)c(NC3CC3)n2)cc1F [Compound 938],,76 to 100,,,,
Cc1cc(COc2ncc(F)c(N)n2)no1 [Compound 939],0 to 25,76 to 100,,,,
Fc1cnc(OCCc2ccccc2)nc1NC1CC1 [Compound 940],0 to 25,0 to 25,,,,
Fc1cnc(OCc2ccc(Cl)cc2Cl)nc1NCc1ccc(Cl)cc1 [Compound 942],76 to 100,76 to 100,,,,
Fc1ccccc1CNc1nc(OCc2c(Cl)cccc2Cl)ncc1F [Compound 943],51 to 75,76 to 100,,,,
Fc1cnc(OCc2ccco2)nc1N1CCOCC1 [Compound 944],0 to 25,0 to 25,,,,

SMILES,pest or weed control at 50 ppm (24 h) [%],pest or weed control at 200 ppm (24 h) [%],pest or weed control at 25 ppm [1] [%],pest or weed control at 25 ppm [2] [%],pest or weed control at 25 ppm [3] [%],"pest or weed control at 100 ppm (72 h, three day curative (3DC)) [%]"
Fc1cnc(OCc2cccs2)nc1NCc1ccc(Cl)cc1 [Compound 945],76 to 100,76 to 100,,,,
Fc1cnc(OCc2ccco2)nc1NCc1ccc(Cl)cc1 [Compound 946],51 to 75,76 to 100,,,,
CC(=O)Nc1nc(OCc2ccc(C(F)(F)F)cc2)ncc1F [Compound 947],76 to 100,76 to 100,,,,
Fc1ccccc1CNc1nc(OCCc2ccccc2)ncc1F [Compound 948],0 to 25,0 to 25,,,,
Cc1ccc(COc2ncc(F)c(NCc3cccs3)n2)cc1 [Compound 949],51 to 75,76 to 100,,,,
Fc1cnc(OCC(F)(F)F)nc1NCc1ccc2c(c1)OCO2 [Compound 950],0 to 25,0 to 25,,,,
Cc1ccc(CNc2nc(OCc3ccc(F)cc3)ncc2F)cc1 [Compound 951],51 to 75,76 to 100,,,,
Fc1ccccc1CNc1nc(OCc2ccc(OC(F)(F)F)cc2)ncc1F [Compound 953],26 to 50,76 to 100,,,,
"COc1ccccc1NC(=O)Nc1nc(O)ncc1F [Compound 954, 1-(5-Fluoro-2-hydroxypyrimidin-4-yl)-3-(2-methoxyphenyl)urea]",,,26 to 50,26 to 50,26 to 50,51 to 75
"Cc1ccc(COc2ncc(F)c(NS(=O)(=O)c3ccc(C)cc3)n2)cc1 [Compound 955, N-(5-Fluoro-2-(4-methylbenzyloxy)pyrimidin-4-yl)-4-methylbenzenesulfonamide]",,,0 to 25,0 to 25,0 to 25,0 to 25
"O=S(=O)(Nc1nc(O)ncc1F)c1ccccc1 [Compound 956, N-(5-Fluoro-2-hydroxypyrimidin-4-yl)benzenesulfonamide]",,,0 to 25,0 to 25,0 to 25,0 to 25
"CN(Cc1ccccc1)c1nc(O)ncc1F [Compound 957, 4-(Benzylmethylamino)-5-fluoropyrimidin-2-ol]",,,0 to 25,0 to 25,26 to 50,26 to 50
Fc1cnc(OCc2ccccc2)nc1/N=N/c1cccc(C(F)(F)F)c1 [Compound 958],,,0 to 25,0 to 25,26 to 50,26 to 50
"C=CCOc1ncc(F)c(NNC(=O)c2cccc(C)c2)n1 [Compound 959, N′-(2-(allyloxy)-5-fluoropyrimidin-4-yl)-3-methylbenzohydrazide]",,,0 to 25,0 to 25,0 to 25,0 to 25
"COc1ccc(/C=N/Nc2nc(O)ncc2F)cc1 [Compound 960, (E)-5-Fluoro-4-(2-(4-methoxybenzylidene)hydrazinyl)pyrimidin-2(1H)-one]",,,0 to 25,0 to 25,0 to 25,0 to 25
"O=CNc1nc(OCc2ccccc2)ncc1F [Compound 961, N-(2-(Benzyloxy)-5-fluoropyrimidin-4-yl)formamide]",,,76 to 100,76 to 100,76 to 100,76 to 100
"Nc1nc(OCOC(=O)C2CCCC2)ncc1F [Compound 962, (4-amino-5-fluoropyrimidin-2-yloxy)methyl cyclopentanecarboxylate]",,,76 to 100,76 to 100,76 to 100,76 to 100
"N#CNc1nc(OCc2ccccc2)ncc1F [Compound 963, 2-Benzyloxy-5-fluoro-pyrimidin-4-yl-cyanamide]",,,0 to 25,0 to 25,26 to 50,0 to 25
